For assay [1], the system named is HIVIIIB. The assay is described as follows: HIV-1 replication in MT2 cell line without human serum (RT activity in supernatant). It counts as cell-based. The note with it: MT2 cells, day 5 after infection, average if tested more than once, read-out: MT2 (HIVIIIB) IC50 range. Here is the method: (§1) HIV-1 Replication in MT2 cell line with and without 30% human serum: The cells are infected at a Multiciplicity of Infection (MOI) of 0.5 for 3 h and then washed twice with complete media to remove residual virus. Cells are then resuspended at 0.5×10^6/ml in complete medium (RPMI, 10% FBS, 1% sodium pyruvate), and seeded into 96-well plates (6.25×10^4/well). The cells are cultured in the presence or absence of various concentrations of test compounds in serial dilutions for 3 days at 37° C. The test compounds are serially diluted in complete medium supplemented or not with 30% human serum. After 3 days, 100 μL of cultured medium with cells are replaced with 120 μL of freshly diluted test compounds in complete medium containing or not 30% Human serum. The level of HIV-1 replication is determined at days 5 after infection by the presence of viral RT activity in harvested supernatant fluid. The IC50 values for the virus replication are determined by using GRAPHPAD PRISM software.
(§2) The IC50 of the compounds tested in accordance with the HIV replication activity assay MT2 (HIVIIIB) with or without human serum are represented in Table 6.

The subject of assay [2] is HIVIIIB. Kind of assay: HIV-1 replication in MT2 cell line with 30% human serum (RT activity in supernatant). It counts as cell-based. The note with it: MT2 cells, day 5 after infection, average if tested more than once, read-out: MT2 (HIVIIIB) with human serum IC50 range. Here is the method:
as §1, §2

Where [3] appears, read: Human immunodeficiency virus 1, 120 h.

A value given as a limit tells only on which side of the number the result lay.

Broadly, the IC50 is the concentration that inhibits the measured activity by half. On to `C=C(C)[C@@H]1CC[C@]2(NC(=O)NC)CC[C@]3(C)[C@H](CC[C@@H]4[C@@]5(C)CC[C@H](OC(=O)CC(C)(C)C(=O)O)C(C)(C)[C@@H]5CC[C@]43C)[C@@H]12` [Cpd 11-7, 3β-O-(3′,3′-Dimethylsuccinyl)-17β-[N′-(methyl)ureido]-28-norlup-20(29)-ene], for which the IC50 in assay [1] (setting [3]) and in assay [2] (setting [3]) was under 199 nM in each case.

Consider `C=C(C)[C@@H]1CC[C@]2(NC(=O)OCc3ccccc3)CC[C@]3(C)[C@H](CC[C@@H]4[C@@]5(C)CC[C@H](OC(=O)CC(C)(C)C(=O)O)C(C)(C)[C@@H]5CC[C@]43C)[C@@H]12` [Cpd 14-2, 3β-O-(3′,3′-Dimethylsuccinyl)-17β-benzyloxycarbonylamino-28-norlup-20(29)-ene], for which the IC50 in assay [1] (setting [3]) was under 199 nM.

On to `CC(=O)NC12CCC(C(C)C)C1C1CCC3C4(C)CCC(OC(=O)CC(C)(C)C(=O)O)C(C)(C)C4CCC3(C)C1(C)CC2` (stereo not drawn) [Cpd 22-1, 3β-O-(3′,3′-Dimethylsuccinyl)-17β-acetylamino-28-norlupane], for which the IC50 in assay [1] and in assay [2] was under 199 nM throughout.

For `C=C(C)[C@@H]1CC[C@]2(NC(=O)c3ccccc3)CC[C@]3(C)[C@H](CC[C@@H]4[C@@]5(C)CC[C@H](OC(=O)CC(C)(C)C(=O)O)C(C)(C)[C@@H]5CC[C@]43C)[C@@H]12` [Cpd 13-7, 17β-Benzoylamino-3β-O-(3′,3′-dimethylsuccinyl)-28-norlup-20(29)-ene], in assay [1] (setting [3]), the IC50 was under 199 nM.

As for `C=C(C)[C@@H]1CC[C@]2(NC(=O)OC)CC[C@]3(C)[C@H](CC[C@@H]4[C@@]5(C)CC[C@H](OC(=O)CC(C)(C)C(=O)O)C(C)(C)[C@@H]5CC[C@]43C)[C@@H]12` [Cpd 14-1, 3β-O-(3′,3′-Dimethylsuccinyl)-17β-methoxycarbonylamino-28-norlup-20(29)-ene], the IC50 in assay [1] (setting [3]) and in assay [2] (setting [3]) was under 199 nM in each case.

Turning to `C=C(C)[C@@H]1CC[C@]2(NC(=O)N[C@@H](C(=O)O)C(C)C)CC[C@]3(C)[C@H](CC[C@@H]4[C@@]5(C)CC[C@H](OC(=O)CC(C)(C)CC(=O)O)C(C)(C)[C@@H]5CC[C@]43C)[C@@H]12` [Cpd 11-5, 3β-O-(3′,3′-Dimethylglutaryl)-28-norlup-20(29)-ene-17β-yl-N-carbamoyl-L-valine], the IC50 in assay [1] (setting [3]) was under 199 nM.

Regarding `C=C(C)[C@@H]1CC[C@]2(NC(N)=O)CC[C@]3(C)[C@H](CC[C@@H]4[C@@]5(C)CC[C@H](OC(=O)CC(C)(C)C(=O)O)C(C)(C)[C@@H]5CC[C@]43C)[C@@H]12` [Cpd 11-10, 3β-O-(3′,3′-Dimethylsuccinyl)-17β-ureido-28-norlup-20(29)-ene], the half-inhibitory concentration (IC50) in assay [1] (setting [3]) and in assay [2] (setting [3]) was under 199 nM each time.

For the compound `C=C(C)[C@@H]1CC[C@]2(NC(=O)C3CC3)CC[C@]3(C)[C@H](CC[C@@H]4[C@@]5(C)CC[C@H](OC(=O)CC(C)(C)C(=O)O)C(C)(C)[C@@H]5CC[C@]43C)[C@@H]12` [Cpd 13-9, 17β-(Cyclopropanecarbonyl-amino)-3β-O-(3′,3′-dimethylsuccinyl)-28-norlup-20(29)-ene], the IC50 in assay [1] (setting [3]) and in assay [2] (setting [3]) was under 199 nM each time.

Turning to `C=C(C)[C@@H]1CC[C@]2(NC(=O)Cc3ccccc3)CC[C@]3(C)[C@H](CC[C@@H]4[C@@]5(C)CC[C@H](OC(=O)CC(C)(C)C(=O)O)C(C)(C)[C@@H]5CC[C@]43C)[C@@H]12` [Cpd 13-6, 3β-O-(3′,3′-Dimethylsuccinyl)-17β-phenylacetylamino-28-norlup-20(29)-ene], the IC50 in assay [1] (setting [3]) and in assay [2] (setting [3]) was under 199 nM throughout.

For `C=C(C)[C@@H]1CC[C@]2(NC(=O)NC(C)(C)C)CC[C@]3(C)[C@H](CC[C@@H]4[C@@]5(C)CC[C@H](OC(=O)CC(C)(C)C(=O)O)C(C)(C)[C@@H]5CC[C@]43C)[C@@H]12` [Cpd 11-2, 3β-O-(3′,3′-Dimethylsuccinyl)-17β-[N′-(tert-butyl)ureido]-28-norlup-20(29)-ene], the IC50 in assay [1] (setting [3]) and in assay [2] (setting [3]) was under 199 nM throughout.

As for `C=C(C)[C@@H]1CC[C@]2(NC(=O)C(=O)OC)CC[C@]3(C)[C@H](CC[C@@H]4[C@@]5(C)CC[C@H](OC(=O)CC(C)(C)C(=O)O)C(C)(C)[C@@H]5CC[C@]43C)[C@@H]12` [Cpd 13-2, 3β-O-(3′,3′-Dimethylsuccinyl)-17β-methoxyoxalyl-amino-28-norlup-20(29)-ene], the IC50 in assay [1] (setting [3]) is under 199 nM.

Turning to `C=C(C)[C@@H]1CC[C@]2(NS(C)(=O)=O)CC[C@]3(C)[C@H](CC[C@@H]4[C@@]5(C)CC[C@H](OC(=O)CC(C)(C)C(=O)O)C(C)(C)[C@@H]5CC[C@]43C)[C@@H]12` [Cpd 12-1, 3β-O-(3′,3′-Dimethylsuccinyl)-17β-methylsulfonylamino-28-norlup-20(29)-ene], the IC50 in assay [1] (setting [3]) and in assay [2] (setting [3]) was under 199 nM each time.

As to `C=C(C)[C@@H]1CC[C@]2(NC(=O)N[C@@H](C(=O)O)C(C)C)CC[C@]3(C)[C@H](CC[C@@H]4[C@@]5(C)CC[C@H](OC(=O)CC(C)(C)C(=O)O)C(C)(C)[C@@H]5CC[C@]43C)[C@@H]12` [Cpd 11-4, 3β-O-(3′,3′-Dimethylsuccinyl)-28-norlup-20(29)-ene-17β-yl-N-carbamoyl-L-valine], the IC50 in assay [1] (setting [3]) was under 199 nM.

With `C=C(C)[C@@H]1CC[C@]2(NC(=O)CC(C)(C)CC(=O)O)CC[C@]3(C)[C@H](CC[C@@H]4[C@@]5(C)CC[C@H](OC(=O)CC(C)(C)CC(=O)O)C(C)(C)[C@@H]5CC[C@]43C)[C@@H]12` [Cpd 13-5, 3β-O,17β-N-bis(3′,3′-dimethylglutaryl)-28-norlup-20(29)-ene], the IC50 in assay [1] (setting [3]) is under 199 nM.

As to `C=C(C)[C@@H]1CC[C@]2(N(C)C)CC[C@]3(C)[C@H](CC[C@@H]4[C@@]5(C)CC[C@H](OC(=O)CC(C)(C)C(=O)O)C(C)(C)[C@@H]5CC[C@]43C)[C@@H]12` [Cpd 10-3, 3β-O-(3′,3′-Dimethylsuccinyl)-17β-dimethylamino-28-norlup-20(29)-ene], the IC50 in assay [2] (setting [3]) was under 199 nM.

Turning to `C=C(C)[C@@H]1CC[C@]2(NC(=O)NCC3CCOCC3)CC[C@]3(C)[C@H](CC[C@@H]4[C@@]5(C)CC[C@H](OC(=O)CC(C)(C)C(=O)O)C(C)(C)[C@@H]5CC[C@]43C)[C@@H]12` [Cpd 11-21, 3β-O-(3′,3′-Dimethylsuccinyl)-17β-(N′-tetrahydropyran-4-ylmethyl-ureido)-28-norlup-20(29)-ene], in assay [2] (setting [3]), the IC50 was under 199 nM.

Regarding `C=C(C)[C@@H]1CC[C@]2(N)CC[C@]3(C)[C@H](CC[C@@H]4[C@@]5(C)CC[C@H](OC(=O)[C@H]6CCC[C@@H](C(=O)O)C6)C(C)(C)[C@@H]5CC[C@]43C)[C@@H]12` [Cpd 9-3, 3β-O-(cis-Cyclohexane-3′-carboxylic acid-1′-carboxyl)-17β-amino-28-norlup-20(29)-ene], the IC50 in assay [2] (setting [3]) is under 199 nM.

Consider `C=C(C)[C@@H]1CC[C@]2(NC(=O)NCC(C)C)CC[C@]3(C)[C@H](CC[C@@H]4[C@@]5(C)CC[C@H](OC(=O)CC(C)(C)C(=O)O)C(C)(C)[C@@H]5CC[C@]43C)[C@@H]12` [Cpd 11-24, 3β-O-(3′,3′-Dimethylsuccinyl)-17β-(N′-isobutylureido)-28-norlup-20(29)-ene], for which the IC50 in assay [2] (setting [3]) was under 199 nM.

Turning to `C=C(C)[C@@H]1CC[C@]2(NC(=O)c3ccncc3)CC[C@]3(C)[C@H](CC[C@@H]4[C@@]5(C)CC[C@H](OC(=O)[C@H]6CCC[C@@H](C(=O)O)C6)C(C)(C)[C@@H]5CC[C@]43C)[C@@H]12` [Cpd 13-15, 3β-O-(cis-Cyclohexane-3′-carboxylic acid-1′-carboxyl)-17β-(pyridin-4-ylcarbonyl)-amino-28-norlup-20(29)-ene], the IC50 in assay [2] (setting [3]) was over 1000 nM.

Regarding `C=C(C)[C@@H]1CC[C@]2(NC(=O)OC(C)(C)C)CC[C@]3(C)[C@H](CC[C@@H]4[C@@]5(C)CC[C@H](OC(=O)CC(C)(C)C(=O)O)C(C)(C)[C@@H]5CC[C@]43C)[C@@H]12` [Cpd 8-1, 3β-O-(3′,3′-Dimethylsuccinyl)-17β-tert-butyloxycarbonylamino-28-norlup-20(29)-ene], the IC50 in assay [1] (setting [3]) was under 199 nM.

Consider `C=C(C)[C@@H]1CC[C@]2(NC(=O)CC(C)(C)C(=O)O)CC[C@]3(C)[C@H](CC[C@@H]4[C@@]5(C)CC[C@H](OC(=O)CC(C)(C)C(=O)O)C(C)(C)[C@@H]5CC[C@]43C)[C@@H]12` [Cpd 13-4, 3β-O,17β-N-bis(3′,3′-dimethylsuccinyl)-28-norlup-20(29)-ene], for which, in assay [1] (setting [3]), the IC50 was under 199 nM.

Turning to `C=C(C)[C@@H]1CC[C@]2(NC(=O)Nc3ccccc3)CC[C@]3(C)[C@H](CC[C@@H]4[C@@]5(C)CC[C@H](OC(=O)CC(C)(C)C(=O)O)C(C)(C)[C@@H]5CC[C@]43C)[C@@H]12` [Cpd 11-12, 3β-O-(3′,3′-Dimethylsuccinyl)-17β-(N′-phenyl-ureido)-28-norlup-20(29)-ene], the IC50 in assay [2] (setting [3]) is under 199 nM.

These data come from patent US20110077251A1, “NOVEL 17 BETA LUPANE DERIVATIVES” (priority 2009, published 2011).
